# Results published in the NIST ThermoML archive (doi:10.1016/j.jct.2018.01.015).
# Numbers after ± are expanded uncertainties.
# Assay: xn = mol fraction of the nth substance listed
# Settings: Gas, rotating-body viscometer for gases
smiles,measurement,setting,value
N#N [nitrogen] + O=C=O,viscosity,"253.16 K, 203.1 kPa, x1 = 0.7498",0.01498 ± 4.6e-05 mPa·s
same,viscosity,"253.16 K, 399 kPa, x1 = 0.7498",0.01501 ± 4.6e-05 mPa·s
same,viscosity,"253.16 K, 601.1 kPa, x1 = 0.7498",0.01505 ± 4.6e-05 mPa·s
same,viscosity,"253.16 K, 797.1 kPa, x1 = 0.7498",0.01509 ± 4.6e-05 mPa·s
same,viscosity,"253.16 K, 998.4 kPa, x1 = 0.7498",0.01514 ± 4.6e-05 mPa·s
same,viscosity,"253.17 K, 100.3 kPa, x1 = 0.7498",0.01495 ± 4.6e-05 mPa·s
same,viscosity,"253.17 K, 108.1 kPa, x1 = 0.4996",0.01423 ± 4.2e-05 mPa·s
same,viscosity,"253.17 K, 200.4 kPa, x1 = 0.4996",0.01425 ± 4.2e-05 mPa·s
same,viscosity,"253.17 K, 398.3 kPa, x1 = 0.4996",0.01427 ± 4.2e-05 mPa·s
same,viscosity,"253.17 K, 596.2 kPa, x1 = 0.4996",0.01431 ± 4.2e-05 mPa·s
same,viscosity,"253.17 K, 798.8 kPa, x1 = 0.4996",0.01435 ± 4.2e-05 mPa·s
same,viscosity,"253.18 K, 110.4 kPa, x1 = 0.2479",0.01347 ± 5.3e-05 mPa·s
same,viscosity,"253.18 K, 203.7 kPa, x1 = 0.2479",0.01348 ± 5.3e-05 mPa·s
same,viscosity,"253.18 K, 396.3 kPa, x1 = 0.2479",0.01348 ± 5.3e-05 mPa·s
same,viscosity,"253.18 K, 605.2 kPa, x1 = 0.2479",0.01352 ± 5.3e-05 mPa·s
same,viscosity,"253.21 K, 100.8 kPa, x1 = 1",0.01561 ± 3e-05 mPa·s
same,viscosity,"253.21 K, 200.9 kPa, x1 = 1",0.01564 ± 3e-05 mPa·s
same,viscosity,"253.21 K, 400.7 kPa, x1 = 1",0.01566 ± 3e-05 mPa·s
same,viscosity,"253.21 K, 600.8 kPa, x1 = 1",0.01571 ± 3e-05 mPa·s
same,viscosity,"253.21 K, 800.8 kPa, x1 = 1",0.01574 ± 3e-05 mPa·s
same,viscosity,"253.21 K, 1000.9 kPa, x1 = 1",0.01579 ± 3e-05 mPa·s
same,viscosity,"253.21 K, 1200.9 kPa, x1 = 1",0.01584 ± 3e-05 mPa·s
same,viscosity,"273.19 K, 108.8 kPa, x1 = 0.7498",0.01597 ± 4.7e-05 mPa·s
same,viscosity,"273.19 K, 109.2 kPa, x1 = 0.4996",0.01525 ± 4.2e-05 mPa·s
same,viscosity,"273.19 K, 201 kPa, x1 = 0.7498",0.01599 ± 4.7e-05 mPa·s
same,viscosity,"273.19 K, 400.9 kPa, x1 = 0.4996",0.0153 ± 4.2e-05 mPa·s
same,viscosity,"273.19 K, 401.7 kPa, x1 = 0.7498",0.01602 ± 4.7e-05 mPa·s
same,viscosity,"273.19 K, 600.3 kPa, x1 = 0.7498",0.01605 ± 4.7e-05 mPa·s
same,viscosity,"273.19 K, 603.1 kPa, x1 = 0.4996",0.01533 ± 4.2e-05 mPa·s
same,viscosity,"273.19 K, 800.1 kPa, x1 = 0.4996",0.01537 ± 4.2e-05 mPa·s
same,viscosity,"273.19 K, 800.2 kPa, x1 = 0.7498",0.0161 ± 4.7e-05 mPa·s
same,viscosity,"273.19 K, 1000.1 kPa, x1 = 0.7498",0.01613 ± 4.7e-05 mPa·s
same,viscosity,"273.19 K, 1200.6 kPa, x1 = 0.7498",0.01619 ± 4.7e-05 mPa·s
same,viscosity,"273.2 K, 201.1 kPa, x1 = 0.2479",0.01448 ± 5.3e-05 mPa·s
same,viscosity,"273.2 K, 205.6 kPa, x1 = 0.4996",0.01527 ± 4.2e-05 mPa·s
same,viscosity,"273.2 K, 397.9 kPa, x1 = 0.2479",0.0145 ± 5.3e-05 mPa·s
same,viscosity,"273.2 K, 601.6 kPa, x1 = 0.2479",0.01453 ± 5.3e-05 mPa·s
same,viscosity,"273.2 K, 1004.5 kPa, x1 = 0.4996",0.01541 ± 4.2e-05 mPa·s
same,viscosity,"273.21 K, 108.1 kPa, x1 = 0.2479",0.01448 ± 5.3e-05 mPa·s
same,viscosity,"273.21 K, 793.9 kPa, x1 = 0.2479",0.01457 ± 5.3e-05 mPa·s
same,viscosity,"273.24 K, 100.7 kPa, x1 = 1",0.01659 ± 3e-05 mPa·s
same,viscosity,"273.24 K, 200.8 kPa, x1 = 1",0.01661 ± 3e-05 mPa·s
same,viscosity,"273.24 K, 400.5 kPa, x1 = 1",0.01664 ± 3e-05 mPa·s
same,viscosity,"273.24 K, 600.4 kPa, x1 = 1",0.01667 ± 3e-05 mPa·s
same,viscosity,"273.24 K, 800.6 kPa, x1 = 1",0.01671 ± 3e-05 mPa·s
same,viscosity,"273.24 K, 1000.6 kPa, x1 = 1",0.01674 ± 3e-05 mPa·s
same,viscosity,"273.24 K, 1499.8 kPa, x1 = 1",0.01685 ± 3e-05 mPa·s
same,viscosity,"298.19 K, 108.9 kPa, x1 = 0.7498",0.01719 ± 4.4e-05 mPa·s
same,viscosity,"298.19 K, 196.7 kPa, x1 = 0.7498",0.01721 ± 4.4e-05 mPa·s
same,viscosity,"298.19 K, 402.3 kPa, x1 = 0.7498",0.01724 ± 4.4e-05 mPa·s
same,viscosity,"298.19 K, 604.2 kPa, x1 = 0.7498",0.01727 ± 4.4e-05 mPa·s
same,viscosity,"298.19 K, 801 kPa, x1 = 0.7498",0.0173 ± 4.4e-05 mPa·s
same,viscosity,"298.19 K, 999.3 kPa, x1 = 0.7498",0.01734 ± 4.4e-05 mPa·s
same,viscosity,"298.19 K, 1498.4 kPa, x1 = 0.7498",0.01744 ± 4.4e-05 mPa·s
same,viscosity,"298.2 K, 202.6 kPa, x1 = 0.7498",0.0172 ± 4.4e-05 mPa·s
same,viscosity,"298.2 K, 390.5 kPa, x1 = 0.7498",0.01724 ± 4.4e-05 mPa·s
same,viscosity,"298.2 K, 599.6 kPa, x1 = 0.7498",0.01727 ± 4.4e-05 mPa·s
same,viscosity,"298.2 K, 807 kPa, x1 = 0.7498",0.0173 ± 4.4e-05 mPa·s
same,viscosity,"298.2 K, 1008.5 kPa, x1 = 0.7498",0.01734 ± 4.4e-05 mPa·s
same,viscosity,"298.2 K, 1501.4 kPa, x1 = 0.7498",0.01744 ± 4.4e-05 mPa·s
same,viscosity,"298.21 K, 108 kPa, x1 = 0.4996",0.0165 ± 3.1e-05 mPa·s
same,viscosity,"298.21 K, 108.7 kPa, x1 = 0.2479",0.01571 ± 4.2e-05 mPa·s
same,viscosity,"298.21 K, 109 kPa, x1 = 0.4996",0.01649 ± 3.1e-05 mPa·s
same,viscosity,"298.21 K, 109 kPa, x1 = 0.7498",0.01719 ± 4.4e-05 mPa·s
same,viscosity,"298.21 K, 201.9 kPa, x1 = 0.4996",0.01651 ± 3.1e-05 mPa·s
same,viscosity,"298.21 K, 204.7 kPa, x1 = 0.4996",0.0165 ± 3.1e-05 mPa·s
same,viscosity,"298.21 K, 205.2 kPa, x1 = 0.2479",0.01572 ± 4.2e-05 mPa·s
same,viscosity,"298.21 K, 395.1 kPa, x1 = 0.2479",0.01574 ± 4.2e-05 mPa·s
same,viscosity,"298.21 K, 399.1 kPa, x1 = 0.4996",0.01654 ± 3.1e-05 mPa·s
same,viscosity,"298.21 K, 402.3 kPa, x1 = 0.4996",0.01654 ± 3.1e-05 mPa·s
same,viscosity,"298.21 K, 593.4 kPa, x1 = 0.4996",0.01656 ± 3.1e-05 mPa·s
same,viscosity,"298.21 K, 602.9 kPa, x1 = 0.2479",0.01577 ± 4.2e-05 mPa·s
same,viscosity,"298.21 K, 603.8 kPa, x1 = 0.4996",0.01657 ± 3.1e-05 mPa·s
same,viscosity,"298.21 K, 800.9 kPa, x1 = 0.4996",0.0166 ± 3.1e-05 mPa·s
same,viscosity,"298.21 K, 803.6 kPa, x1 = 0.4996",0.01661 ± 3.1e-05 mPa·s
same,viscosity,"298.21 K, 807.6 kPa, x1 = 0.2479",0.01581 ± 4.2e-05 mPa·s
same,viscosity,"298.21 K, 1000 kPa, x1 = 0.4996",0.01664 ± 3.1e-05 mPa·s
same,viscosity,"298.21 K, 1002.4 kPa, x1 = 0.2479",0.01585 ± 4.2e-05 mPa·s
same,viscosity,"298.21 K, 1003.3 kPa, x1 = 0.4996",0.01664 ± 3.1e-05 mPa·s
same,viscosity,"298.21 K, 1202 kPa, x1 = 0.4996",0.0167 ± 3.1e-05 mPa·s
same,viscosity,"298.21 K, 1204.4 kPa, x1 = 0.4996",0.01669 ± 3.1e-05 mPa·s
same,viscosity,"298.22 K, 107.9 kPa, x1 = 0.2479",0.01571 ± 4.2e-05 mPa·s
same,viscosity,"298.22 K, 204.8 kPa, x1 = 0.2479",0.01572 ± 4.2e-05 mPa·s
same,viscosity,"298.22 K, 401.2 kPa, x1 = 0.2479",0.01575 ± 4.2e-05 mPa·s
same,viscosity,"298.22 K, 602.1 kPa, x1 = 0.2479",0.01578 ± 4.2e-05 mPa·s
same,viscosity,"298.22 K, 794.6 kPa, x1 = 0.2479",0.01581 ± 4.2e-05 mPa·s
same,viscosity,"298.22 K, 1003 kPa, x1 = 0.2479",0.01585 ± 4.2e-05 mPa·s
same,viscosity,"298.24 K, 800.5 kPa, x1 = 1",0.01785 ± 2.5e-05 mPa·s
same,viscosity,"298.25 K, 99.6 kPa, x1 = 1",0.01776 ± 2.5e-05 mPa·s
same,viscosity,"298.25 K, 100.7 kPa, x1 = 1",0.01777 ± 2.5e-05 mPa·s
same,viscosity,"298.25 K, 200.5 kPa, x1 = 1",0.01778 ± 2.5e-05 mPa·s
same,viscosity,"298.25 K, 400.7 kPa, x1 = 1",0.0178 ± 2.5e-05 mPa·s
same,viscosity,"298.25 K, 400.8 kPa, x1 = 1",0.0178 ± 2.5e-05 mPa·s
same,viscosity,"298.25 K, 600.2 kPa, x1 = 1",0.01783 ± 2.5e-05 mPa·s
same,viscosity,"298.25 K, 1000.1 kPa, x1 = 1",0.01789 ± 2.5e-05 mPa·s
same,viscosity,"298.25 K, 1500.2 kPa, x1 = 1",0.01799 ± 2.5e-05 mPa·s
same,viscosity,"323.2 K, 109.1 kPa, x1 = 0.7498",0.01837 ± 5.1e-05 mPa·s
same,viscosity,"323.2 K, 198.2 kPa, x1 = 0.7498",0.01838 ± 5.1e-05 mPa·s
same,viscosity,"323.2 K, 393.8 kPa, x1 = 0.7498",0.01841 ± 5.1e-05 mPa·s
same,viscosity,"323.2 K, 600.2 kPa, x1 = 0.7498",0.01844 ± 5.1e-05 mPa·s
same,viscosity,"323.2 K, 800.3 kPa, x1 = 0.7498",0.01847 ± 5.1e-05 mPa·s
same,viscosity,"323.2 K, 1000.9 kPa, x1 = 0.7498",0.0185 ± 5.1e-05 mPa·s
same,viscosity,"323.2 K, 1500.1 kPa, x1 = 0.7498",0.0186 ± 5.1e-05 mPa·s
same,viscosity,"323.22 K, 108.4 kPa, x1 = 0.2479",0.01691 ± 5.5e-05 mPa·s
same,viscosity,"323.22 K, 109.2 kPa, x1 = 0.4996",0.01769 ± 4.2e-05 mPa·s
same,viscosity,"323.22 K, 196.1 kPa, x1 = 0.2479",0.01693 ± 5.5e-05 mPa·s
